Experiments:
Human LPA1 [1] = molecular target: T1, Human LPA1 (Homo sapiens, UniProt Q92633); test: LPA1 calcium flux assay; assay type: cell-based; parameters: the full-length cDNA for human LPA1 is obtained by PCR of the reverse transcription reaction; expressed in transfected cells; host or cells: CHO; settings: human LPA1 expressing CHO cells; stimulated with 10 nM LPA; read-out: Ca Flux LPA1 IC50
Procedure: Establishment of a CHO Cell Line Stably Expressing Human LPA1
A 1.1 kb cDNA encoding the human LPA1 receptor is cloned from human lung. Human lung RNA (Clontech Laboratories, Inc. USA) is reverse transcribed using the RETROscript kit (Ambion, Inc.) and the full-length cDNA for human LPA1 is obtained by PCR of the reverse transcription reaction. The nucleotide sequence of the cloned human LPA1 is determined by sequencing and is confirmed to be identical to the published human LPA1 sequence (An et al. Biochem. Biophys. Res. Commun. 231:619 (1997). The cDNA is cloned into the pcDNA5 pcDNA5/FRT expression plasmid and is transfected in CHO cells using lipofectamine 2000 (Invitrogen Corp., USA). Clones stably expressing human LPA1 are selected using hygromycin and identified as cells that show Ca-influx in response to LPA.
LPA1 and LPA3 Calcium Flux Assays
Human LPA1 or LPA3 expressing CHO cells were seeded at 20,000-45,000 cells per well in a 96-well poly-D-lysine coated plate one or two days before the assay. Prior to the assay, the cells were washed once with PBS and then cultured in serum-free media overnight. On the day of the assay, a calcium indicator dye (Calcium 4, Molecular Devices) in assay buffer (HBSS with Ca^2+ and Mg^2+ and containing 20 mM Hepes and 0.3% fatty-acid free human serum albumin) was added to each well and incubation continued for 1 hour at 37° C. 10 μl of test compounds in 2.5% DMSO were added to the cells and incubation continued at room temperature for 30 minutes. Cells were then stimulated by the addition of 10 nM LPA and intracellular Ca^2+ measured using the Flexstation 3 (Molecular Devices). IC50s were determined using Graphpad prism analysis of drug titration curves.

Human LPA1 [2] = molecular target: T1, Human LPA1; test: Beta-Arrestin based assay for human LPA1R antagonists (PathHunter); assay type: cell-based; parameters: host or cells: CHO; settings: CHO cells stably expressing ProLink tagged human LPA1R; agonist LPA 0.5 micromolar
How it was run: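 CHO cells stably expressing ProLink-tagged human LPA1R with β-arrestin–EA fusion, assayed by β-galactosidase complementation. Antagonists tested against 0.5 micromolar LPA ([…]), in quadruplicate. End-point luminescence fitted to a 4-parameter logistic to give IC50.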

T1 sequence (Q92633 whole entry): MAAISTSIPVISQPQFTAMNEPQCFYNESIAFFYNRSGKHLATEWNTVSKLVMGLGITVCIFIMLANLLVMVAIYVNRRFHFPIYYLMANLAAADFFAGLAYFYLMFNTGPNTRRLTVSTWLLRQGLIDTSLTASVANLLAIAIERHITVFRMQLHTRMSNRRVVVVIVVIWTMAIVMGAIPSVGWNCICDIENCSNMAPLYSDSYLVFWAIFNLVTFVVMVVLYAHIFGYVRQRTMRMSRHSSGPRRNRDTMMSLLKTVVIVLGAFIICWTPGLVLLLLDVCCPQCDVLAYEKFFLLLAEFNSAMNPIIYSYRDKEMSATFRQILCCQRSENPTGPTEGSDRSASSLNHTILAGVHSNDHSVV

| IC50 (Human LPA1 [1]) | EC50 (Human LPA1 [2]) | SMILES |
| --- | --- | --- |
| > 500 nM | < 50 nM | Cc1nsc(-c2ccc(-c3ccc(C(C(=O)O)c4ccccc4)cc3)cc2)c1NC(=O)O[C@H](C)c1ccccc1Cl (single isomer, unassigned) [Compound 70] |
| > 500 nM | 50 to 500 nM | Cc1nsc(-c2ccc(-c3ccc(C(C(=O)O)c4ccccc4)cc3)cc2)c1NC(=O)O[C@H](C)c1ccccc1Cl (single isomer, unassigned) [Compound 71] |
| > 500 nM | > 500 nM | Cc1noc(-c2ccc(-c3ccc(CC(=O)O)cc3)cc2)c1NS(=O)(=O)c1ccccc1 [Compound 19] |
| < 50 nM | < 50 nM | Cc1onc(-c2ccc(-c3ccc(C4(C(=O)O)CC4)cc3)cc2)c1NC(=O)O[C@H](C)c1ccccc1Cl [Compound 30] |
| < 50 nM | < 50 nM | Cc1nsc(-c2ccc(-c3ccc(C4(C(=O)O)CC4)cc3)cc2)c1NC(=O)O[C@H](C)c1ccccc1 [Compound 44] |
| < 50 nM | < 50 nM | Cc1nsc(-c2ccc(-c3ccc(C4(C(=O)O)CC4)cc3)cc2)c1NC(=O)OCc1ccccc1 [Compound 45] |
| 50 to 500 nM | 50 to 500 nM | Cc1nsc(-c2ccc(-c3ccc(C4(C(=O)O)CC4)cc3)cc2)c1NC(=O)OCc1ccccc1Cl [Compound 46] |
| 50 to 500 nM | < 50 nM | Cc1snc(-c2ccc(-c3ccc(C4(C(=O)O)CC4)cc3)cc2)c1NC(=O)O[C@H](C)c1ccccc1Cl [Compound 56] |
| > 500 nM | 50 to 500 nM | C[C@@H](OC(=O)Nc1c(-c2ccc(-c3ccc(C4(C(=O)O)CC4)cc3)cc2)oc2ccc(F)cc12)c1ccccc1Cl [Compound 60] |
| > 500 nM | < 50 nM | C[C@@H](OC(=O)Nc1c(-c2ccc(-c3ccc(C4(C(=O)O)CC4)cc3)cc2)oc2cc(F)ccc12)c1ccccc1Cl [Compound 61] |
| 50 to 500 nM | < 50 nM | Cc1nnn(-c2ccc(-c3ccc(C4(C(=O)O)CC4)cc3)cc2)c1NC(=O)O[C@H](C)c1ccccc1Cl [Compound 64] |
| < 50 nM | < 50 nM | C[C@@H](OC(=O)Nc1ccnn1-c1ccc(-c2ccc(C3(C(=O)O)CC3)cc2)cc1)c1ccccc1Cl [Compound 67] |
| > 500 nM | > 500 nM | C[C@@H](OC(=O)Nc1ccn(-c2ccc(-c3ccc(C4(C(=O)O)CC4)cc3)cc2)n1)c1ccccc1Cl [Compound 68] |
| 50 to 500 nM | 50 to 500 nM | Cc1noc(-c2ccc3c(c2)CCc2cc(CC(=O)O)ccc2-3)c1NC(=O)O[C@H](C)c1ccccc1Cl [Compound 78] |
| 50 to 500 nM | < 50 nM | Cc1noc(-c2ccc(-c3ccc(C4CCOCC4C(=O)O)cc3)cc2)c1NC(=O)O[C@H](C)c1ccccc1Cl (some centres unmarked) [Compound 79] |
| 50 to 500 nM | < 50 nM | Cc1noc(-c2ccc(-c3ccc(C4(C(=O)O)COC4)cc3)cc2)c1NC(=O)O[C@H](C)c1ccccc1 [Compound 80] |
| < 50 nM | < 50 nM | Cc1nsc(C#Cc2ccc(C3(C(=O)O)CC3)cc2)c1NC(=O)O[C@H](C)c1ccccc1Cl [Compound 81] |
| > 500 nM | 50 to 500 nM | Cc1nsc(C#Cc2ccc(C3(C(=O)O)CC3)cc2)c1NC(=O)O[C@H](C)c1ccccc1 [Compound 82] |
| 50 to 500 nM | < 50 nM | Cc1nsc(-c2ccc(-c3ccc(C4(C(=O)O)CC4)cc3)cc2)c1NC(=O)O[C@H](C)c1ccccc1F [Compound 83] |
| 50 to 500 nM | < 50 nM | Cc1ccccc1[C@@H](C)OC(=O)Nc1c(C)nsc1-c1ccc(-c2ccc(C3(C(=O)O)CC3)cc2)cc1 [Compound 86] |
| < 50 nM | < 50 nM | Cc1snc(-c2ccc(-c3ccc(C4(C(=O)O)CC4)cc3)cc2)c1NC(=O)O[C@H](C)c1ccccc1 [Compound 105] |
| < 50 nM | < 50 nM | C[C@@H](OC(=O)Nc1scnc1-c1ccc(-c2ccc(C3(C(=O)O)CC3)cc2)cc1)c1ccccc1Cl [Compound 107] |
|  | 50 to 500 nM | Cc1nsc(-c2ccc(-c3ccc(C4(C(=O)O)CCOCC4)cc3)cc2)c1NC(=O)O[C@H](C)c1ccccc1 [Compound 243] |
|  | > 500 nM | Cc1nsc(-c2ccc(-c3ccc(C4(C(=O)O)CC4)cc3)cc2)c1NC(=O)OC1(c2ccccc2)CC1 [Compound 244] |
|  | < 50 nM | Cc1nsc(-c2ccc3c(c2)CCc2cc(C4(C(=O)O)CC4)ccc2-3)c1NC(=O)O[C@H](C)c1ccccc1 [Compound 245] |
|  | 50 to 500 nM | Cc1nsc(-c2ccc3c(c2)CCc2cc(C4(C(=O)O)CC4)ccc2-3)c1NC(=O)OCc1ccccc1 [Compound 246] |
|  | < 50 nM | Cc1noc(-c2ccc3c(c2)CCc2cc(C4(C(=O)O)CC4)ccc2-3)c1NC(=O)O[C@H](C)c1ccccc1 [Compound 247] |
|  | < 50 nM | Cc1noc(-c2ccc3c(c2)CCc2cc(C4(C(=O)O)CC4)ccc2-3)c1NC(=O)O[C@H](C)c1ccccc1Cl [Compound 248] |

| IC50 (Human LPA1 [1]) | EC50 (Human LPA1 [2]) | SMILES |
| --- | --- | --- |
|  | < 50 nM | Cc1nsc(-c2ccc3c(c2)CCc2cc(C4(C(=O)O)CC4)ccc2-3)c1NC(=O)O[C@H](C)c1ccccc1Cl [Compound 249] |
|  | 50 to 500 nM | Cc1noc(C#Cc2ccc(C3(C(=O)O)CC3)cc2)c1NC(=O)O[C@H](C)c1ccccc1 [Compound 250] |
|  | 50 to 500 nM | Cc1nsc(-c2ccc(-c3ccc(C4(C(=O)O)CC4)cc3)nc2)c1NC(=O)O[C@H](C)c1ccccc1Cl [Compound 251] |
|  | 50 to 500 nM | Cc1nsc(-c2ccc(-c3ccc(C4(C(=O)O)CC4)cn3)cc2)c1NC(=O)O[C@H](C)c1ccccc1Cl [Compound 252] |
|  | < 50 nM | Cc1nsc(-c2ccc(-c3ccc(C4(C(=O)O)CC4)cc3)cc2)c1NC(=O)OC(C)c1ccccc1 (centres unmarked) [Compound 253] |
|  | 50 to 500 nM | Cc1noc(C#Cc2cc3sc(C(=O)O)cc3s2)c1NC(=O)O[C@H](C)c1ccccc1 [Compound 254] |
|  | < 50 nM | Cc1noc(C#Cc2cc3sc(C4(C(=O)O)CC4)cc3s2)c1NC(=O)O[C@H](C)c1ccccc1 [Compound 255] |
|  | > 500 nM | O=C(O)Cc1ccc(C2CCN(C(=O)CCNC(=O)OCc3ccccc3)CC2)cc1 [Compound 256] |
|  | > 500 nM | O=C(O)Cc1ccc(C2CCN(C(=O)[C@@H](Cc3ccccc3)NC(=O)OCc3ccccc3)CC2)cc1 [Compound 257] |
|  | > 500 nM | CN(CC(=O)N1CCC(c2ccc(CC(=O)O)cc2)CC1)C(=O)OCc1ccccc1 [Compound 258] |
|  | > 500 nM | O=C(O)Cc1ccc(N2CCN(C(=O)CCNC(=O)COc3ccccc3)CC2)cc1 [Compound 265] |
|  | > 500 nM | O=C(O)Cc1ccc(N2CCN(C(=O)[C@@H](Cc3ccccc3)NC(=O)OCc3ccccc3)CC2)cc1 [Compound 266] |
|  | > 500 nM | C[C@H](NC(=O)OCc1ccccc1)C(=O)N1CCN(c2ccc(CC(=O)O)cc2)CC1 [Compound 267] |
|  | > 500 nM | O=C(O)Cc1ccc(N2CCN(C(=O)[C@@H](NC(=O)OCc3ccccc3)c3ccccc3)CC2)cc1 [Compound 268] |
|  | > 500 nM | O=C(O)Cc1ccc(N2CCN(C(=O)CNC(=O)OCc3ccccc3)CC2)cc1 [Compound 269] |
|  | > 500 nM | O=C(O)Cc1ccc(N2CCN(C(=O)CCCNC(=O)OCc3ccccc3)CC2)cc1 [Compound 270] |
|  | > 500 nM | CN(CC(=O)N1CCN(c2ccc(CC(=O)O)cc2)CC1)C(=O)OCc1ccccc1 [Compound 271] |
|  | > 500 nM | O=C(O)Cc1ccc(N2CCN(C(=O)[C@H](NC(=O)OCc3ccccc3)c3ccccc3)CC2)cc1 [Compound 272] |
|  | > 500 nM | C[C@@H](NC(=O)OCc1ccccc1)C(=O)N1CCN(c2ccc(CC(=O)O)cc2)CC1 [Compound 273] |
|  | > 500 nM | CCCC(=O)Nc1ccnc(-c2ccc(-c3ccc(CC(=O)O)cc3)cc2)c1 [reference compound] |
|  | > 500 nM | CCCCC(=O)NCC(=O)c1ccc(-c2ccc(CC(=O)O)cc2)cc1 [reference compound] |
|  | > 500 nM | CC(=O)Nc1ccnc(-c2ccc(-c3ccc(CC(=O)O)cc3)cc2)c1 [reference compound] |
|  | > 500 nM | CCC(=O)Nc1ccnc(-c2ccc(-c3ccc(CC(=O)O)cc3)cc2)c1 [reference compound] |
|  | > 500 nM | O=C(O)Cc1ccc(-c2ccc(-c3cc(NC(=O)C4CCCC4)ccn3)cc2)cc1 [reference compound] |
|  | > 500 nM | CC(C)NC(=O)Nc1ccnc(-c2ccc(-c3ccc(CC(=O)O)cc3)cc2)c1 [reference compound] |
|  | > 500 nM | CCCOC(=O)NCC(=O)c1ccc(-c2ccc(CC(=O)O)cc2)cc1 [reference compound] |
|  | > 500 nM | CC(C)NC(=O)Nc1ncncc1-c1ccc(-c2ccc(CC(=O)O)cc2)cc1 [reference compound] |

Reference: US8975235B2, “Lysophosphatidic acid receptor antagonists” (InterMune, Inc., priority 2011, dated 2015)
